In PMC11477289, “Low-Basicity 5-HT6 Receptor Ligands from the Group of Cyclic Arylguanidine Derivatives and Their Antiproliferative Activity Evaluation” (International Journal of Molecular Sciences, 2024):
Where “and” joins values, the source holds several entries; their conditions need not be identical. Identical values can stand only once. Like-named read-outs stand apart in the source and are kept apart here.

Tests used:
[1] = target: T1, human 5-HT6 (Homo sapiens, UniProt P50406); assay: [3H]-LSD radioligand binding assay, 5-HT6R; details: HEK293 expressing human 5-HT6R, read-out: 5-HT6 Ki
T1 construct: expressed in transfected cells
Method: Next, the ligands’ affinity for the 5-HT6 receptors was evaluated in the [^3H]-LSD radioligand binding assay. Experiments were performed in a stable HEK293 cell line expressing the human 5-HT6R.
The pellets were stored at −80 °C.

[2] = Chromatographic hydrophobicity index on C18 column (lipophilicity); format: physicochemical
[3] = Affinity to phospholipids, IAM column (CHI IAM); format: physicochemical; details: IAM.PC.DD2 column, pH 7.4
[4] = target: human serum albumin (HSA) (Homo sapiens, UniProt P02768); assay: Binding to HSA, Chiralpak HSA column
Excerpt: We began with an assay for lipophilicity, affinity for phospholipids (for 40 compounds), and drug binding to human serum albumin (HSA) (for 20 compounds), using chromatographic protocols developed by Valko [46] and implemented in our laboratory. Compounds with the highest affinity for 5-HT6R and those showing the most promising ADMET parameters, including the possibility of BBB penetration, DDI, and lipophilicity, determined in silico in SwissADME [45], were selected for testing. These methods allowed the determination of chromatographic hydrophobicity indices (CHIs), binding to HSA (%HSA), and phospholipids (CHIIAM) using a single-gradient elution experiment and comparison to reference substances.
The use of columns modified with plasma proteins, such as HSA, also allows for the estimation of binding to HSA, which is the most dominant plasma protein (PP). Binding to PP affects drug pharmacokinetics, such as distribution, half-life, and clearance.
The mobile phase flow rate was 1.5 mL/min, and the column was maintained at 30 °C. • Chiralpak® HSA (50 mm × 4 mm; 5 µm with safety guard column; Daicel Chiral Technologies, West Chester, PA, USA), mobile phase A: 50 mM ammonium acetate, mobile phase B: HPLC-grade isopropanol (VWR International, Leuven, Belgium). For the first 15 min, the linear gradient from 0 to 20% isopropanol was applied and then held at 20% isopropanol for 12 min. In the last 5 min of the sequence, the mobile phase mixture received a pure ammonium acetate solution. The column temperature was held at 30 °C, whereas the flow rate was 0.9 mL/min.
The reference substances for the calibration of HSA, C18, and IAM columns were purchased, respectively: acetanilide, butyrophenone, diclofenac, and octanonophenone (Alfa Aesar, Haverhill, MA, USA); acetophenone, benzimidazole, colchicine, indole, indometacin, paracetamol, and theophylline (Sigma-Aldrich, Steinheim, Germany); nicardipine and nizatidine (Cayman Chemical, Ann Arbor, MI, USA); carbamazepine, heptanophenone, hexanophenone, propiophenone, and valerophenone (Acros Organic, Pittsburg, PA, USA). Before chromatographic experiments, solutes were dissolved in dimethyl sulfoxide (Avantor Performance Materials Poland S.A., Gliwice, Poland) to obtain a 200 µg/mL concentration. The detection was performed in the UV region at the wavelength from 190 nm to 300 nm. The injected volume was 5 μL, and each compound was analyzed in triplicate.

[5] = test system: U87MG glioblastoma cells; assay: Antiproliferative activity (MTS), U87MG; details: Homo sapiens, U-87 MG, 72 h, read-out: IC50 Values U87MG
[6] = test system: 1321N1 astrocytoma cell line; assay: Antiproliferative activity (MTS), 1321N1; details: Homo sapiens, 1321-N1, 72 h, read-out: IC50 Values 1321N1

T1 sequence (P50406 whole entry): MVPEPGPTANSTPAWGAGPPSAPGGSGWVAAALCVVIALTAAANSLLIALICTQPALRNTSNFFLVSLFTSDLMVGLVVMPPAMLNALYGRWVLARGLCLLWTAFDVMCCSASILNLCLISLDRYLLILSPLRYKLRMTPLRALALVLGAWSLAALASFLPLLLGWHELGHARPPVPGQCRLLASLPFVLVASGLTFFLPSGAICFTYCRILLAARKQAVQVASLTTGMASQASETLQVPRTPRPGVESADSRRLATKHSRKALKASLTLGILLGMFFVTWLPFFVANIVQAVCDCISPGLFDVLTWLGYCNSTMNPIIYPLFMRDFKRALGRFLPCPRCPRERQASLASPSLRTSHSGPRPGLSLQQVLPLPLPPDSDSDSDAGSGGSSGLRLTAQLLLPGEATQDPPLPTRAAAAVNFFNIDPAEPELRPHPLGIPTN
Chain of human serum albumin (HSA) (P02768 25-609): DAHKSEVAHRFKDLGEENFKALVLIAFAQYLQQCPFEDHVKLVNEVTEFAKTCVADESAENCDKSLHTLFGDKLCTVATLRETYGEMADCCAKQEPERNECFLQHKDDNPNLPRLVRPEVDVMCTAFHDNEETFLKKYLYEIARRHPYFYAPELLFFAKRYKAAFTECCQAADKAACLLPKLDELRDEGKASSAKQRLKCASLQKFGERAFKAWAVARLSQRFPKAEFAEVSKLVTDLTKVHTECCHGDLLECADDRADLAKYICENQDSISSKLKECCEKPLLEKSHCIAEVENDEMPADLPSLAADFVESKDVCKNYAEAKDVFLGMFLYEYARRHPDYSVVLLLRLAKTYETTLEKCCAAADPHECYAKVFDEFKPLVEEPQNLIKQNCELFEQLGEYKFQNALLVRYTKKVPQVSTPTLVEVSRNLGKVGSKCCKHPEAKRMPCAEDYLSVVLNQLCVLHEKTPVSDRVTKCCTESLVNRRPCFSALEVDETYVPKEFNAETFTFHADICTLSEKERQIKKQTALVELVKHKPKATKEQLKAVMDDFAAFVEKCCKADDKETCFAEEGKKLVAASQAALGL

| SMILES | Ki [1] [nM] | CHI C18 pH 2.6 [2] | CHI C18 pH 7.4 [2] | CHI C18 pH 10.5 [2] | CHI IAM [3] | %HSA ([4]; Chiralpak HSA column) [%] | logKHSA ([4]; Chiralpak HSA column) | melting point [°C] | IC50 [5] [nM] | IC50 [6] [nM] | %HSA [4] [%] |
| --- | --- | --- | --- | --- | --- | --- | --- | --- | --- | --- | --- |
| CN(C)CCC=C1c2ccccc2CCc2ccccc21 [Amitriptyline, reference compound] |  | 65.9 | 112.0 | 116.3 | 47.0 |  | 0.87 |  |  |  | 88.9 |
| O=S(=O)(NC1=Nc2c(Cl)cc(Cl)cc2CN1)c1cccc2ccccc12 [PR 51, N -(6,8-dichloro-3,4-dihydroquinazolin-2-yl)naphthalene-1-sulfonamide] | 866 ± 199 | 108.2 | 106.2 | 110.1 | 48.4 | 99.0 | 1.7 | 214 to 219 | > 25000 | > 25000 |  |
| CC1NC(NS(=O)(=O)c2ccc(Cl)c3ccccc23)=Nc2c(Cl)cc(Cl)cc21 (stereo not shown) [PR 74, 4-chloro-N-(6,8-dichloro-4-methyl-3,4-dihydroquinazolin-2-yl)naphthalene-1-sulfonamide] | 1040 ± 260 | 125.7 | 123 and 123.9 | 128.1 | 55.5 | 99.9 | 2.0 | 215 to 219 | 17000 ± 400 | 13400 ± 800 |  |
| CN1CCN2c3ncccc3Cc3ccccc3C2C1 (stereo not shown) [Mirtazapine, reference compound] |  | 46.7 | 101.2 | 79.0 | 39.3 | 76.9 | 0.51 |  |  |  |  |
| COc1ccc2c(c1)CNC(NS(=O)(=O)c1cccc3ccccc13)=N2 [PR 59, N -(6-methoxy-3,4-dihydroquinazolin-2-yl)naphthalene-1-sulfonamide] | 1960 ± 452 | 84.9 | 85.0 | 88.4 | 38.2 |  |  | 263 to 266 |  |  |  |
| O=S(=O)(NC1=Nc2cc(Cl)ccc2CN1)c1ccc2ccccc2c1 [PR 33, N -(7-chloro-3,4-dihydroquinazolin-2-yl)naphthalene-2-sulfonamide] | 1960 ± 434 | 98.3 | 96.4 | 99.9 | 44.9 |  |  | 220 to 222 |  |  |  |
| COc1cccc2c1C(=O)c1c(O)c3c(c(O)c1C2=O)C[C@@](O)(C(=O)CO)C[C@@H]3O[C@H]1C[C@H](N)[C@H](O)[C@H](C)O1 [Doxorubicin, reference compound] |  |  |  |  |  |  |  |  |  | 1100 |  |
| COc1ccc(C(CN(C)C)C2(O)CCCCC2)cc1 (stereo not shown) [Venlafaxine, reference compound] |  | 53.5 | 82.2 | 92.9 | 29.9 |  | -0.55 |  |  |  |  |
| COc1cccc(S(=O)(=O)NC2=Nc3ccccc3CN2)c1 [PR 24, N -(3,4-dihydroquinazolin-2-yl)-3-methoxybenzene-1-sulfonamide] | 906 ± 227 | 74.1 | 74.5 | 75.5 | 31.4 |  |  | 108 to 114 |  |  |  |
| CC1NC(NS(=O)(=O)c2ccc3ccccc3c2)=Nc2cc(Cl)ccc21 (stereo not shown) [PR 37, N -(7-chloro-4-methyl-3,4-dihydroquinazolin-2-yl)naphthalene-2-sulfonamide] | 2220 ± 534 | 101.0 | 100.1 | 102.6 | 46.1 |  |  | 167 to 171 |  |  |  |
| O=S(=O)(NC1=Nc2ccccc2CN1)c1ccccc1Cl [PR 18, 2-chloro-N-(3,4-dihydroquinazolin-2-yl)benzene-1-sulfonamide] | 1800 ± 451 | 76.4 | 76.3 | 86.6 | 33.5 |  |  | 217 to 222 |  |  |  |
| CN1CCN2c3ccccc3Cc3ccccc3C2C1 (stereo not shown) [Mianserin, reference compound] |  | 59.4 | 108.6 | 98.7 | 44.2 | 90.9 | 0.95 |  |  |  |  |
| O=S(=O)(NC1=Nc2cc(Cl)ccc2CN1)c1cccc2ccccc12 [PR 48, N -(7-chloro-3,4-dihydroquinazolin-2-yl)naphthalene-1-sulfonamide] | 668 ± 156 | 97.6 | 97.1 | 95.9 | 44.6 |  |  | 214 to 219 |  |  |  |
| CC1NC(NS(=O)(=O)c2cccc3ccccc23)=Nc2c(Cl)cc(Cl)cc21 (stereo not shown) [PR 72, N -(6,8-dichloro-4-methyl-3,4-dihydroquinazolin-2-yl)naphthalene-1-sulfonamide] | 997 ± 249 | 114.1 | 111.3 | 116.7 | 49.3 |  |  | 109 to 116 |  |  |  |

Now from value to compound:

| Ki [1] [nM] | CHI C18 pH 2.6 [2] | CHI C18 pH 7.4 [2] | CHI C18 pH 10.5 [2] | CHI IAM [3] | %HSA ([4]; Chiralpak HSA column) [%] | logKHSA ([4]; Chiralpak HSA column) | melting point [°C] | IC50 [5] [nM] | IC50 [6] [nM] | %HSA [4] [%] | SMILES |
| --- | --- | --- | --- | --- | --- | --- | --- | --- | --- | --- | --- |
| 282 ± 65 | 98.2 | 96.5 | 99.5 | 44.3 | 98.3 | 1.6 | 210 to 212 | > 25000 | > 25000 |  | O=S(=O)(NC1=Nc2ccccc2CN1)c1cccc2cc(Cl)ccc12 [PR 44, 6-chloro-N-(3,4-dihydroquinazolin-2-yl)naphthalene-1-sulfonamide] |
| 236 ± 58 |  |  |  |  |  |  | 169 to 174 | > 25000 | > 25000 |  | CC1NC(NS(=O)(=O)c2cccc3ccccc23)=Nc2ccccc21 (stereo not shown) [PR 67, N -(4-methyl-3,4-dihydroquinazolin-2-yl)naphthalene-1-sulfonamide] |
| 160 ± 36 |  |  |  |  |  |  |  | > 25000 | > 25000 |  | O=S(=O)(NC1=Nc2cccc(Cl)c2CN1)c1cccc2ccccc12 [PR 46, N -(5-chloro-3,4-dihydroquinazolin-2-yl)naphthalene-1-sulfonamide] |
| 258 ± 46 |  |  |  |  |  |  | 185 to 191 | > 25000 | > 25000 |  | O=S(=O)(NC1=Nc2ccccc2CN1)c1cccc2c(Cl)cccc12 [PR 43, 5-chloro-N-(3,4-dihydroquinazolin-2-yl)naphthalene-1-sulfonamide] |
| 318 ± 18 | 75.1 | 79.2 | 79.6 | 35.7 | 94.3 | 1.1 | 254 to 256 | > 25000 | > 25000 |  | Nc1nc2ccccc2n1S(=O)(=O)c1cccc2cccnc12 [PR 9, 1-(quinoline-8-sulfonyl)-1H-1,3-benzodiazol-2-amine] |
| 268 ± 63 | 100.1 | 99.2 | 101.6 | 45.5 | 97.9 | 1.5 | 188 to 191 | > 25000 | > 25000 |  | O=S(=O)(NC1=Nc2ccccc2CN1)c1ccc(Cl)c2ccccc12 [PR 42, 4-chloro-N-(3,4-dihydroquinazolin-2-yl)naphthalene-1-sulfonamide] |
| 451 ± 102 | 106.2 | 103.9 | 108.6 | 49.0 |  |  | 233 to 240 |  |  |  | O=S(=O)(NC1=Nc2ccc(Cl)c(Cl)c2CN1)c1cccc2ccccc12 [PR 50, N -(5,6-dichloro-3,4-dihydroquinazolin-2-yl)naphthalene-1-sulfonamide] |
